Results published in US20110064789A1, “DOCOSAHEXANOIC ACID AS INHIBITOR OF H. PYLORI” (priority 2009, published 2011).

Experiments:
H. pylori [1] = settings: cited from earlier work
H. pylori strain SS1 = test: Mouse model for H. pylori gastric colonization, DHA in drinking water; type: in vivo; settings: for stomach colonization / mice in which colonization by H. pylori occurred / inhibition of H. pylori growth (gastric colonization): DHA 50 μM in drinking water
From the text: Five-weeks-old specific pathogen-free C57BU6 male mice have been purchased from Charles River Laboratories (France). Animals were housed in microisolators in polycarbonate cages. Food has been supplied ad libitum. Standard diet was purchased from SAFE (Epinay/Orge, France). Animals were acclimatized for one week before inoculation. The experiments reported in the study were approved in advanced by the Central Animal Facility Committee of Institut Pasteur, in conformity with the French Ministry of Agriculture Guidelines for Animal Care.
H. pylori strain SS1 was grown on blood agar plates, harvested after 24 h and suspended in peptone broth. Twenty four mice (n=24) were orogastrically inoculated 100 μL of a suspension of 10^8 CFU/mL of H. pylori strain SS1, whereas non-infected groups of mice (n=24) were given 100 μL of peptone broth. Mice were sacrificed 1 or 3 months after infection. For each time point, the experiments consisted in 4 groups of mice, 2 groups received drinking water and for the two other groups, drinking water was supplemented with DHA at a final concentration of 50 μM. Dose of 50 μM corresponds more precisely to a quantity of 0.068 mg of DHA received by each mouse each day. Each two groups consisted of one uninfected-group (n=6) and one H. pylori strain SS1 infected-group (n=6). Stomachs were isolated from each mouse and used to measure H. pylori colonization as previously described by Ferrero et al.^51
C57BL/6 mice were therefore infected with SS1 strain and start on DHA treatment for the whole period of the experiment, which was given in their drinking water in a concentration of 50 μM. Mice were sacrificed at one, three, six or nine months of infection.

H. pylori SS1 strain = test: Efficiency of DHA versus standard therapy in H. pylori eradication in mice; type: in vivo, C57BL/6 mice; settings: mice infected one month; DHA 15 days, standard therapy 7 days
From the text: C57BU6 mice have been infected with H. pylori SS1 strain for one month and proceed to treatment with DHA for 15 days or/and standard therapy for 7 days, as described elsewhere by Lee et al.^52 and van Zanten et al.^53. According to the standard therapy, mice received omeprazole (400 μmol/kg/day), metronidazole (14.2 μmol/kg/day) and clarithromycin (7.15 μmol/kg/day)^53.

[2] = test system: H. pylori strains 26695 (ATCC 700392), SS1 and B128; test: In vitro incubation of H. pylori broth cultures with DHA added at time 0 (growth, viable CFU); type: cell-based, Helicobacter pylori; settings: DHA 250 μM
[3] = test system: H. pylori strains 26695, SS1 and B128; test: In vitro addition of DHA to a 12 hours H. pylori culture (bactericidal/bacteriostatic effect, CFU); type: cell-based, Helicobacter pylori; settings: versus prior art doses
Method: Stock solutions of DHA were diluted at desired concentrations (from 10 μM to 1000 μM) in Brucella broth (BB) enriched with 10% FBS. […] Each experiment consisting of a control (bacterial medium) and bacteria incubated with DHA at 10 μ[…] and 1000 μM was performed in triplicate. DHA was added at the time 0 of the experiments or after 12 hours. H. pylori broth cultures were incubated microaerophilically, at 37° C. for 48 hours. Every 6 hours, the OD 600 nm of the cultures was measured and 200 μL samples were diluted and plated on blood agar plates for the numeration of viable bacteria (colony-forming-units (CFU)) after 48 hours of incubation at 37° C. The question as to whether DHA has a bactericidal effect was answered by conducting an experiment where DHA was added to a 12 hours H. pylori culture. FIG. 2 represents the viability of the three strains of H. pylori used. Addition of DHA after 12 hours of H. pylori growth led to a decrease of the ability to form CFU in a dose dependent manner.

H. pylori [4] = settings: in vitro assay of Thompson et al.; cited from earlier work

For `CCC(C(=O)O)c1ccccc1` (stereo not shown) [2-phenylbutyrate], the “effect on growth of H. pylori” value (H. pylori [1]) is given as “ability to inhibit the growth of H. pylori”.

For `O=C(O)CCCc1ccccc1` [4-phenylbutyrate], the “effect on growth of H. pylori” value (H. pylori [1]) is given as “ability to inhibit the growth of H. pylori”.

With `CC/C=C\C/C=C\C/C=C\C/C=C\C/C=C\C/C=C\CCC(=O)O` [DHA, docosahexaenoic acid] the “dose that showed a higher inhibitory role in gastric colonization” value (H. pylori strain SS1; 25, 50 and 100 μM tested in drinking water) was 50 µM, the stomach colonization (H. pylori strain SS1; after 1 month of infection) was 0.47×10^5 CFU/g gastric tissue and the stomach colonization (H. pylori strain SS1; after the third month) was 0.62×10^5 CFU/g gastric tissue. The “mice in which colonization by H. pylori occurred” value (H. pylori strain SS1; first month of infection) was 20%, the “mice in which colonization by H. pylori occurred” value (H. pylori strain SS1; third month) was 50% and the “inhibition of H. pylori growth (gastric colonization)” value (H. pylori strain SS1; nine months of infection) was “about 100 fold”. The “inhibition of H. pylori growth (gastric colonization)” value (H. pylori strain SS1; one, three and six months of infection) was “approximately 10 fold”, the toxicity (H. pylori strain SS1; DHA 50 μM in mice drinking water, 0.068 mg per mouse per day) was “no toxicity concerns” and the lower gastric colonization (H. pylori SS1 strain) was 10 times. For the same compound, the “bacterial viability of strain 26695 as compared to SS1” value [2] was 100 times and the “doses giving bactericidal and bacteriostatic effects, lower than the prior art doses” value [3] was 5 to 10 times.

For `CC/C=C\C/C=C\C/C=C\C/C=C\C/C=C\CCCC(=O)O` [EPA], the “concentration that could inhibit the growth of H. Pylori” value (H. pylori [4]) is listed as 0.2 mM.

In the case of `CC/C=C\C/C=C\C/C=C\CCCCCCCC(=O)O` [linolenic acid ω-3C18:3], the “concentration that could inhibit the growth of H. Pylori” value (H. pylori [4]) is given as 0.2 mM.

For `CCCCC/C=C\C/C=C\C/C=C\CCCCC(=O)O` [ω-6C18:3, linolenic acid ω-6C18:3], the “concentration that could inhibit the growth of H. Pylori” value (H. pylori [4]) is given as 0.2 mM.
